Assay results: patent publication US7902361B2, “Pyrimidin-4-yl-3, 4-thione compounds and their use in therapy” (Cyclacel Limited, priority 2003, dated 2011)

What was measured:
CDK9/cyclin T1 = CDK9/cyclin T1 (Homo sapiens, UniProt P50750); experiment: Kinase assay CDK9/cyclin T1; type: biochemical; settings: Ki calculated (Cheng-Prusoff) from experimentally determined IC50 and Km,ATP; read-out: Kinase Inhibition Ki CDK9 - cyclin T1
In short: (§1)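 Radiometric filter assays used recombinant kinases or complexes (2-4 μg) with appropriate polypeptide substrates in pH 7.4 β-glycerophosphate/MOPS buffer. Reactions were started with 15 mM MgCl2 and 100 μM ATP containing [γ-32P]-ATP and run at 30° C. Phosphate incorporated into substrate was counted by scintillation after washing.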

aurora A = target: T1, aurora A (Homo sapiens, UniProt O14965); experiment: Kinase assay aurora A; type: biochemical; settings: Ki calculated (Cheng-Prusoff) from experimentally determined IC50 and Km,ATP; read-out: Kinase Inhibition Ki Aurora A
T1 sequence (O14965 1-403): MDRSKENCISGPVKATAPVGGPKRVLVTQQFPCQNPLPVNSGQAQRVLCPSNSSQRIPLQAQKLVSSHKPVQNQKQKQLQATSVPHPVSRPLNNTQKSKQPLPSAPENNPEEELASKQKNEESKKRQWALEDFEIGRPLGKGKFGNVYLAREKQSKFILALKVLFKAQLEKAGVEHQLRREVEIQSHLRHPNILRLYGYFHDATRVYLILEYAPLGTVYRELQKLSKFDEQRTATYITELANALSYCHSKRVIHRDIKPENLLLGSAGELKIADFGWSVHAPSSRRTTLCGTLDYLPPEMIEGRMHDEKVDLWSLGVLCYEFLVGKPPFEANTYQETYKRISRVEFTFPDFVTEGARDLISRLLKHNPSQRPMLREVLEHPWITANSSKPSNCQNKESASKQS
Protocol: The compounds from the examples above were investigated for their ability to inhibit the enzymatic activity of various protein kinases. This was achieved by measurement of incorporation of radioactive phosphate from ATP into appropriate polypeptide substrates. Recombinant protein kinases and kinase complexes were produced or obtained commercially. Assays were performed using 96-well plates and appropriate assay buffers (typically 25 mM β-glycerophosphate, 20 mM MOPS, 5 mM EGTA, 1 mM DTT, 1 mM […], pH 7.4), into which were added 2-4 μg of active enzyme with appropriate substrates. […] Reactions were stopped on ice, followed by filtration through p81 filterplates or GF/C filterplates (Whatman Polyfiltronics, Kent, UK). After washing 3 times with 75 mM aq orthophosphoric acid, plates were dried, scintillant added and incorporated radioactivity measured in a scintillation counter (TopCount, Packard Instruments, Pangbourne, Berks, UK). Compounds for kinase assay were made up as 10 mM stocks in DMSO and diluted into 10% DMSO in assay buffer.

HIV-1 = HIV-1 in human PBMCs, seven days following infection
Protocol: Representative compounds of the present invention were tested for antiviral activity against HIV-1 in human peripheral blood mononuclear cells (PBMCs) using the clinical paediatric HIV strains RoJo or WeJo. PBMCs were cultured under conditions which promote cell survival and HIV replication.
Fresh PBMCs, seronegative for HIV and HBV, were isolated from screened donors (Interstate Blood Bank, Inc. Memphis, Tenn.). Cells were pelleted/washed 2-3 times by low speed centrifugation and re-suspension in PBS to remove contaminating platelets. […] Banded PBMCs were gently aspirated from the resulting interface and subsequently washed with PBS by low speed centrifugation. […] The cells were allowed to incubate at 37° C. […] IL-2 is included in the culture medium to maintain the cell division initiated by the PHA mitogenic stimulation. PBMCs were maintained in this with bi-weekly medium changes until used in the assay protocol. Cells were kept in culture for a maximum of two weeks before being deemed too old for use in assays and discarded. Monocytes were depleted from the culture as the result of adherence to the tissue culture flask.
For the standard PBMC assay, PHA-P stimulated cells from at least two normal donors were pooled, diluted and plated in the interior wells of a 96-well round bottom microplate. Pooling of mononuclear cells from more than one donor was used to minimise the variability observed between individual donors, which results from quantitative and qualitative differences in HIV infection and overall response to the PHA and IL-2 of primary lymphocyte populations. Each plate contained virus/cell control wells (cells plus virus), experimental wells (drug plus cells plus virus) and compound control wells (drug plus media without cells, necessary for MTS monitoring of cytotoxicity). Since HIV-1 is not cytopathic to PBMCs, this allows the use of the same assay plate for both antiviral activity and cytotoxicity measurements. Test drug dilutions were prepared in microtiter tubes and each concentration was placed in appropriate wells using the standard format. A predetermined dilution of virus stock was placed in each test well (final MOI≅0.1). The PBMC cultures were maintained for seven days following infection at 37° C., 5% CO2 After this period, cell-free supernatant samples were collected for analysis of reverse transcriptase activity and/or HIV p24 content. Following removal of supernatant samples, compound cytotoxicity was measured by addition of MTS to the plates for determination of cell viability. Wells were also examined microscopically and any abnormalities were noted.
Tritiated thymidine triphosphate (^3H-TTP, 80 Ci/mmol, NEN) was received in 1:1 dH2O:Ethanol at 1 mCi/mL. Poly rA:oligo dT template:primer (Pharmacia) was prepared as a stock solution, followed by aliquoting and storage at −20° C. The RT reaction buffer was prepared fresh on a daily basis. The final reaction mixture was prepared by combining ^3H-TTP, dH2O, poly rA:oligo dT stock and reaction buffer. This reaction mixture was placed in a round bottom microtiter plate and supernatant containing virus was added and mixed. The plate was incubated at 37° C. for 60 minutes. Following incubation, the reaction volume was spotted onto DE81 filter-mats (Wallac), in a sodium phosphate buffer or 2×SSC (Life Technologies). Next they were washed in distilled water, in 70% ethanol, and then dried. Incorporated radioactivity (counts per minute, CPM) was quantified using standard liquid scintillation techniques.

CDK4/cyclin D1 = CDK4/cyclin D1 (Homo sapiens, UniProt P11802); experiment: Kinase assay CDK4/cyclin D1; type: biochemical; settings: Ki calculated (Cheng-Prusoff) from experimentally determined IC50 and Km,ATP; read-out: Kinase Inhibition Ki CDK4 - cyclin D1
In short: as §1

CDK7/cyclin H = CDK7/cyclin H (Homo sapiens, UniProt P50613); experiment: Kinase assay CDK7/cyclin H; type: biochemical; settings: Ki calculated (Cheng-Prusoff) from experimentally determined IC50 and Km,ATP; read-out: Kinase Inhibition Ki CDK7 - cyclin H
In short: as §1

CDK2/cyclin A = CDK2/cyclin A (Homo sapiens, UniProt P24941); experiment: Kinase assay CDK2/cyclin A; type: biochemical; settings: Ki calculated (Cheng-Prusoff) from experimentally determined IC50 and Km,ATP; read-out: Kinase Inhibition Ki CDK2 - cyclin A
In short: (§2)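 Radiometric assays measured transfer of radioactive phosphate from ATP onto polypeptide substrates, using 2-4 μg recombinant active enzyme in buffer typically containing 25 mM β-glycerophosphate, 20 mM MOPS, 5 mM EGTA, 1 mM DTT and 1 mM Na3VO3 at pH 7.4. Reactions were stopped on ice, filtered on P81 or GF/C plates and washed with orthophosphoric acid. Incorporated radioactivity was scintillation-counted.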

CDK2/cyclin E = CDK2/cyclin E (Homo sapiens, UniProt P24941); experiment: Kinase assay CDK2/cyclin E; type: biochemical; settings: Ki calculated (Cheng-Prusoff) from experimentally determined IC50 and Km,ATP; read-out: Kinase Inhibition Ki CDK2 - cyclin E
In short: as §2

CDK1/cyclin B = CDK1/cyclin B (Homo sapiens, UniProt P06493); experiment: Kinase assay CDK1/cyclin B (radioactive phosphate incorporation); type: biochemical; settings: Ki calculated (Cheng-Prusoff) from experimentally determined IC50 and Km,ATP; read-out: Kinase Inhibition Ki CDK1 - cyclin B
In short: as §2

GSK3β = target: T2, GSK3β (Homo sapiens, UniProt P49841); experiment: GSK3β in vitro kinase assay; type: biochemical; settings: recombinant human GSK3β, 100 μM ATP
T2 construct: purchased New England Biolabs
In short: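 Radiometric filter-binding assay with GSK3β (1.5 units), 200 μM CREB phosphopeptide, 100 μM ATP plus [γ-32P]ATP, in 20 mM Tris HCl pH7.5, 5 mM DTT, 15 mM MgCl2, 2% DMSO; 30 min at 30° C, stopped with phosphoric acid. 32P incorporation counted by scintillation; IC50 from 10-point titration.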

GSK3α = target: T3, GSK3α (Homo sapiens, UniProt P49840); experiment: GSK3α in vitro kinase assay; type: biochemical; settings: recombinant human GSK3α, 100 μM ATP
T3 construct: purchased Upstate
Protocol: Both isoforms of GSK3 (α and β) are involved in the regulation of glycogen synthase activity—key enzyme in the glycogen metabolism. The inhibitory potency of example compounds was determined using in vitro kinase assays with recombinant human GSK3-α and -β; the IC50 values determined are presented in Table 9.
A 10-point titration was set up to determine the IC50 values of selected example compounds against GSK3β. Assays were performed using 96-well microtiter plates with a final volume of 25 μL per well. Each assay contained 1.5 units of GSK3β(New England Biolabs), 200 μM CREB phosphopeptide ([…]pSYR, Alta Biosciences), 20 mM Tris HCl pH7.5, 5 mM DTT, 15 mM MgCl2 supplemented with 100 μM ATP and 0.5 μCi of [γ-^32P] ATP plus or minus inhibitor in 2% DMSO. Assays were carried out for 30 minutes at 30° C. before stopping the reaction by the addition of an equal volume of 75 mM aqueous phosphoric acid. Samples were then spotted onto a p81 filterplate (Whatman) and a vacuum was applied. Wells were washed 3 times with 200 μL of dilute aqueous phosphoric acid before the addition of 50 μL Microscint 40 per well. Incorporation of radioactivity was determined on a Topcount microplate scintillation counter (Packard).
GSK3α (Upstate) was assayed exactly as described above except that 1 ng of enzyme was added per assay point.

Chain of CDK7/cyclin H (P50613 whole entry, species assumed): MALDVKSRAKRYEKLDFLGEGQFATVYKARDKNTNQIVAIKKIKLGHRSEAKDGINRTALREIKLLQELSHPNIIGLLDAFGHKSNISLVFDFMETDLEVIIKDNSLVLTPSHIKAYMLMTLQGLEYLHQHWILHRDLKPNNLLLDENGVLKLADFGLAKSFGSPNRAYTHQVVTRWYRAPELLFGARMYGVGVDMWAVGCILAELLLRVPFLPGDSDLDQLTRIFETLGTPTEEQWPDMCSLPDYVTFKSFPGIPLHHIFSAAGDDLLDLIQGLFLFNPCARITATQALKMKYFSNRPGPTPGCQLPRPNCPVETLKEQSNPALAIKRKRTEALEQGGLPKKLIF
Chain of CDK7/cyclin H (P51946 whole entry partner, species assumed): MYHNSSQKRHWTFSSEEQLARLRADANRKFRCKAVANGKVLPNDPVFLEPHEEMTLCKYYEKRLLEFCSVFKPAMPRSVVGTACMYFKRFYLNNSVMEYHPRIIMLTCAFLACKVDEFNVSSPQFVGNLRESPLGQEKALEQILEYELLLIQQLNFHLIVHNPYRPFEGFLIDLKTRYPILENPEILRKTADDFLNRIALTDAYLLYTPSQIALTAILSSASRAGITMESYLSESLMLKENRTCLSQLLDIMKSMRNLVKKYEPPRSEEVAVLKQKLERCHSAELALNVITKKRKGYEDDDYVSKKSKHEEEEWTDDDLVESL
Chain of CDK4/cyclin D1 (P11802 whole entry, species assumed): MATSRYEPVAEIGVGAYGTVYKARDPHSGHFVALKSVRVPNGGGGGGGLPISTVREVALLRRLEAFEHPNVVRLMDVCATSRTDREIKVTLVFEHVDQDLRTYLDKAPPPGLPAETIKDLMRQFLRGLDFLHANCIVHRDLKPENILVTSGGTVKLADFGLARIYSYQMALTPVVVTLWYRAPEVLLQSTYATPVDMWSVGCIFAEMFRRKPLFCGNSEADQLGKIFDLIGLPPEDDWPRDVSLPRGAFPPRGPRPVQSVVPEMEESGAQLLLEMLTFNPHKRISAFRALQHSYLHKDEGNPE
Chain of CDK4/cyclin D1 (P24385 whole entry partner, species assumed): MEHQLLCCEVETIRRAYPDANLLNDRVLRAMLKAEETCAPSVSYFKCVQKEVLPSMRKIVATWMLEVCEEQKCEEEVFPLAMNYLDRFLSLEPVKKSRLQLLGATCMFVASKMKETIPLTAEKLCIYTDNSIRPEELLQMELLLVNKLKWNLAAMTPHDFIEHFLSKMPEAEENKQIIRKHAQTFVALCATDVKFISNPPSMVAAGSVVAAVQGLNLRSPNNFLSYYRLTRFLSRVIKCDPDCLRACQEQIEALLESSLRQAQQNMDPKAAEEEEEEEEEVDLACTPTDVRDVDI
Chain of CDK9/cyclin T1 (P50750 whole entry, species assumed): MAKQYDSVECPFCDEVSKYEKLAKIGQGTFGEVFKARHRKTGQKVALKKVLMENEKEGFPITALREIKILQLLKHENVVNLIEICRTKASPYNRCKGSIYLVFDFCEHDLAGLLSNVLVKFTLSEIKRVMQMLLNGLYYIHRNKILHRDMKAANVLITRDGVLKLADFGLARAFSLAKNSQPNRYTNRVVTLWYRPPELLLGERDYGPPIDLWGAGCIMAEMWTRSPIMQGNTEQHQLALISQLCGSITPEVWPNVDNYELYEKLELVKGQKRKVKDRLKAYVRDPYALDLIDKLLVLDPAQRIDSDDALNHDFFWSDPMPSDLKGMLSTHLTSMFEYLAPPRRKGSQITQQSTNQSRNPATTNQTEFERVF
Chain of CDK9/cyclin T1 (O60563 whole entry partner, species assumed): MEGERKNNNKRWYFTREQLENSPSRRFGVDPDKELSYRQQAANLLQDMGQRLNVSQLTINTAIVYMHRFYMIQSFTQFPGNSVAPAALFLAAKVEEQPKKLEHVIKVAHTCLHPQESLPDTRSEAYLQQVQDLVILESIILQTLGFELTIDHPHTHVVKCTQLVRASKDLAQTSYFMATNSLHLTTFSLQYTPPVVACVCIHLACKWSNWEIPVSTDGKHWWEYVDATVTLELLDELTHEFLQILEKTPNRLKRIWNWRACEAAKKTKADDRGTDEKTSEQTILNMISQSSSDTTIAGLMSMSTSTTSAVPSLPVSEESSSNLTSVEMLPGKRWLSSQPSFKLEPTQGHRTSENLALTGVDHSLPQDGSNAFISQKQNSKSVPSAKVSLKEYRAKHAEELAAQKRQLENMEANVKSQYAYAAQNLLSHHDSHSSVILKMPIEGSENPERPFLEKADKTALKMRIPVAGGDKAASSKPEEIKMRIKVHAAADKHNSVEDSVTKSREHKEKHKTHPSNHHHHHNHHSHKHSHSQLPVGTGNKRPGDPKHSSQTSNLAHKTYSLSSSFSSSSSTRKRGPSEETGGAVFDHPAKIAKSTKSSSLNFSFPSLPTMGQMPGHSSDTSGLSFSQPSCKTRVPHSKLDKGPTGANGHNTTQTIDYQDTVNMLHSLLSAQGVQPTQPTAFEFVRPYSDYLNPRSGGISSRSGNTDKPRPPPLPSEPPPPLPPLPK
T2 sequence (P49841 whole entry): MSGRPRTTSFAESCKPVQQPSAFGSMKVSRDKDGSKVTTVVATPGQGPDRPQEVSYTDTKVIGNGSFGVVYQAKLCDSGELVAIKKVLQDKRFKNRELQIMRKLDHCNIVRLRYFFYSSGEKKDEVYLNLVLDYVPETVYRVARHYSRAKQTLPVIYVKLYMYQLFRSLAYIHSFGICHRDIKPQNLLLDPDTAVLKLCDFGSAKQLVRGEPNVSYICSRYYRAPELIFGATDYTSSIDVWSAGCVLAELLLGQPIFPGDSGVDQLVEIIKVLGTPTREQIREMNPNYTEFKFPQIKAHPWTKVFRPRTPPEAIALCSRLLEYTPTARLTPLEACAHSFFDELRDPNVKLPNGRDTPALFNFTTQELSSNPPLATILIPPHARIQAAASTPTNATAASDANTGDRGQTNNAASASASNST
Chain of CDK1/cyclin B (P06493 whole entry, species assumed): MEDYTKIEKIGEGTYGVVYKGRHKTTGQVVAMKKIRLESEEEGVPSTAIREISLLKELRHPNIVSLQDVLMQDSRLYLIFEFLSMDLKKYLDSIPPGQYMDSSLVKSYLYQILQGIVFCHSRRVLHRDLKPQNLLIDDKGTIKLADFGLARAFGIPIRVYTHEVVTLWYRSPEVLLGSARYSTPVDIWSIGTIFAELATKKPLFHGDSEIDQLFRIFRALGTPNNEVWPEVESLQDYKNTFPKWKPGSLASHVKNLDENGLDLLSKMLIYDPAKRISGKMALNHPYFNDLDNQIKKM
Chain of CDK1/cyclin B (P14635 whole entry partner, species assumed): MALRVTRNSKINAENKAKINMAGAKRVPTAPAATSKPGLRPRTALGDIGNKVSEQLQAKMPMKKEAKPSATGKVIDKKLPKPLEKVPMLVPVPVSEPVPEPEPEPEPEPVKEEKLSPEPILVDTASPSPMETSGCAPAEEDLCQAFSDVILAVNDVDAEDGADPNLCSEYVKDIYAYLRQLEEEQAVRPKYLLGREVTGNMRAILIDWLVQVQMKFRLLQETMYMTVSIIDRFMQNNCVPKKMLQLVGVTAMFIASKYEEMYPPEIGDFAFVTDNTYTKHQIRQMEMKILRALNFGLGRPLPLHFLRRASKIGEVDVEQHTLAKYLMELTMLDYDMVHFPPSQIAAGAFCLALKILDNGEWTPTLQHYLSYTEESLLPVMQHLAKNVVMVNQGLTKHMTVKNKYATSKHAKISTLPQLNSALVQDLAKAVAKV
T3 sequence (P49840 whole entry): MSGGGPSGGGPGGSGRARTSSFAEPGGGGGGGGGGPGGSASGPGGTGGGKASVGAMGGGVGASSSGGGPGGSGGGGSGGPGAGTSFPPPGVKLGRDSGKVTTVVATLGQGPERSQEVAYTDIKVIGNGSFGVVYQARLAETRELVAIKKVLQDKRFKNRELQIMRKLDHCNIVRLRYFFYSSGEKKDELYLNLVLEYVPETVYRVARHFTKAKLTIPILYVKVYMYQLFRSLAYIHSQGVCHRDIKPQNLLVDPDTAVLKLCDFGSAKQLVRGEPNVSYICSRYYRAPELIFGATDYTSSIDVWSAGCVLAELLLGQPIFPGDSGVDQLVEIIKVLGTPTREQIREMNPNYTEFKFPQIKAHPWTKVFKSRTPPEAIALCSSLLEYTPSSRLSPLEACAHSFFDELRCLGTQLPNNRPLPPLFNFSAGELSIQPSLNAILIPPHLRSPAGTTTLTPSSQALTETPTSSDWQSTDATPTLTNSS

Structure (SMILES)	Ki (CDK9/cyclin T1) [nM]	Ki (aurora A) [nM]	anti-HIV activity based on TI (therapeutic index: TC50/IC50) (HIV-1)	Ki (CDK4/cyclin D1) [nM]	Ki (CDK7/cyclin H) [nM]	Ki (CDK2/cyclin A) [nM]	Ki (CDK2/cyclin E) [nM]	Ki (CDK1/cyclin B) [nM]	IC50 (GSK3β) [nM]	IC50 (GSK3α) [nM]
Cc1c(-c2ccnc(Nc3ccc(F)cc3)n2)sc(=O)n1C [Compound 2, 5-[2-(4-Fluoro-phenylamino)-pyrimidin-4-yl]-3,4-dimethyl-3H-thiazol-2-one]	0.8	350	Active	–	–	–	–	–	–	–
Cc1ccc(Nc2nccc(-c3sc(=O)n(C)c3C)n2)cc1[N+](=O)[O-] [Compound 11, 3,4-Dimethyl-5-[2-(4-methyl-3-nitro-phenylamino)-pyrimidin-4-yl]-3H-thiazol-2-one]	0.4	–	Active	380	36	220	61	720	–	–
Cc1cc(Nc2nccc(-c3sc(=O)n(C)c3C)n2)ccc1Cl [Compound 15, 5-[2-(4-Chloro-3-methyl-phenylamino)-pyrimidin-4-yl]-3,4-dimethyl-3H-thiazol-2-one]	45	–	Active	9600	–	460	580	600	–	–
Cc1c(-c2ccnc(Nc3cccc(C#N)c3)n2)sc(=O)n1C [Compound 16, 3-[4-(3,4-Dimethyl-2-oxo-2,3-dihydro-thiazol-5-yl)-pyrimidin-2-ylamino]-benzonitrile]	1.9	–	Active	100	6.8	42	0.5	400	–	–
Cc1ccc(Nc2nccc(-c3sc(=O)n(C)c3C)n2)cc1C(F)(F)F [Compound 21, 3,4-Dimethyl-5-[2-(4-methyl-3-trifluoromethyl-phenylamino)-pyrimidin-4-yl]-3H-thiazol-2-one]	170	–	Active	–	220	550	190	2300	–	–
CCn1c(C)c(-c2ccnc(Nc3cccc([N+](=O)[O-])c3)n2)sc1=O [Compound 23, 3-Ethyl-4-methyl-5-[2-(3-nitro-phenylamino)-pyrimidin-4-yl]-3H-thiazol-2-one]	0.3	–	Active	870	1.4	62	16	290	–	–
CCn1c(C)c(-c2ccnc(Nc3ccc(OC)nc3)n2)sc1=O [Compound 33, 3-Ethyl-5-[2-(6-methoxy-pyridin-3-ylamino)-pyrimidin-4-yl]-4-methyl-3H-thiazol-2-one]	2.4	–	Active	35	23	760	50	30	–	–
Cc1c(-c2ccnc(Nc3ccc(N4CCNCC4)cc3)n2)sc(=O)n1C [Compound 38, 3,4-Dimethyl-5-[2-(4-piperazin-1-yl-phenylamino)-pyrimidin-4-yl]-3H-thiazol-2-one]	10	88	Active	50	38	300	180	470	–	–
CC(=O)NCc1ccc(Nc2nccc(-c3sc(=O)n(C)c3C)n2)cc1 [Compound 59, N-{4-[4-(3,4-Dimethyl-2-oxo-2,3-dihydro-thiazol-5-yl)-pyrimidin-2-ylamino]-benzyl}-acetamide]	7	110	Active	97	210	160	1.6	85	18.3	–
Cc1c(-c2ccnc(Nc3cccc(S(N)(=O)=O)c3)n2)sc(=O)n1C [Compound 60, 3-[4-(3,4-Dimethyl-2-oxo-2,3-dihydro-thiazol-5-yl)-pyrimidin-2-ylamino]-benzenesulfonamide]	0.3	30	Active	22	39	21	3.4	21	1.8	–
Cc1c(-c2ccnc(Nc3ccc(C#N)c(C(F)(F)F)c3)n2)sc(=O)n1C [Compound 70, 4-[4-(3,4-Dimethyl-2-oxo-2,3-dihydro-thiazol-5-yl)-pyrimidin-2-ylamino]-2-trifluoromethyl-benzonitrile]	–	–	–	–	–	–	–	–	6.8	3.6
Cc1c(-c2ccnc(Nc3cccc(S(=O)(=O)NCc4ccccc4)c3)n2)sc(=O)n1C [Compound 77, N-Benzyl-3-[4-(3,4-dimethyl-2-oxo-2,3-dihydro-thiazol-5-yl)-pyrimidin-2-ylamino]-benzenesulfonamide]	–	–	–	–	–	–	–	–	70.9	61.5
